# Laboratory results published in article PMC8977893 (Frontiers in Cell and Developmental Biology, 2022).
# Values joined by “and” are separate entries in the source; they are usually repeats but may differ in a detail not shown here. Equal entries are not always repeated.
# B1: PrP(106–126) (peptide)
# peptide: KTNMKHMAGAAAAGAVVGGLG
# notes: also called prion peptide; prion
# What was measured:
# talin in human platelets = format: cell-based
# SH-SY5Y cells [1] = format: cell-based, human
# human platelets [2] = format: cell-based; details: fibrinogen 2 mg/ml; PrP 20 µM
# SH-SY5Y cells [3] = format: cell-based, human; remark: listed apart in the source
# human platelets [4] = format: cell-based; details: fibrinogen 0.5 to 2 mg/ml before PrP(106–126) 20 µM; 1 mM Ca2+
# [5] = tested on: calpain in washed human platelets; format: cell-based
# SH-SY5Y cells [6] = format: cell-based, human; remark: listed apart in the source
# [7] = target: fibrinogen from human plasma (human, UniProt P02671 36-866; P02675 45-491; P02679 27-453); assay: SPR; details: both partners purified
molecule,measurement,setting,value
fibrinogen: thrombogenic plasma protein fibrinogen from human plasma (Sigma #F4883),effect of fibrinogen on prion-mediated cleavage of talin,"talin in human platelets; fibrinogen 2 mg/ml preincubation, immunoblot, 190 kDa product",completely prevented prion-mediated cleavage of talin
same,attenuation of the rise in ΔΨm on preincubation with fibrinogen,SH-SY5Y cells [1],1.7 fold
same,effect of prior fibrinogen exposure on prion-induced extracellular vesicle shedding,human platelets [2],completely thwarted
same,"Cell line MTT (viability, Vehicle = 100)",SH-SY5Y cells [3],101.27 and 76.19 and 118.37
same,effect of fibrinogen preincubation on PrP-induced loss of viability,SH-SY5Y cells [3]; 48 h,completely restored
same,effect of fibrinogen pretreatment on prion-induced rise in [Ca2+]i,human platelets [4],attenuated prion-induced rise in [Ca^2+]i in a dose-dependent manner
same,drop in calpain activity on fibrinogen preincubation,[5],30%
same,abrogation of the PrP-induced FSC increase by prior fibrinogen treatment,SH-SY5Y cells [6],16.34% ± 17.85
"CNc1ccc2oc(C[C@H]3O[C@@]4(CC[C@H]3C)O[C@H]([C@H](C)C(=O)c3ccc[nH]3)[C@H](C)C[C@H]4C)nc2c1C(=O)O [A23187, reference compound]",proteolysis of talin (235 kDa to 190 kDa fragment),talin in human platelets,complete proteolysis of talin
same,calpain activity in platelets (in words),[5],significant enhancement in calpain activity
"C[S+](C)[O-] [DMSO, dimethylsulfoxide, reference compound]","Cell line MTT (viability, Vehicle = 100)",SH-SY5Y cells [3],15.72 and 26.11 and 18.47
B1,Kd,[7],512 ± 89 nM
